According to patent US11964956B2, “Cannabinergic compounds and uses thereof” (Northeastern University, priority 2012, dated 2024):
Where two headings read alike, the source gives them in different places.

Experiments:
rCB1 [1] = molecular target: T1, rCB1 (Rattus norvegicus, UniProt P20272); assay: rCB1 competition-equilibrium binding with [3H]CP-55,940, rat brain membranes; design: Frozen rat brains (CB1 source) are obtained from Pel-Freeze Biologicals; tissue Pel-Freeze Biologicals (Rogers, AK); host or cells: rat brain membranes
T1 sequence (P20272 whole entry): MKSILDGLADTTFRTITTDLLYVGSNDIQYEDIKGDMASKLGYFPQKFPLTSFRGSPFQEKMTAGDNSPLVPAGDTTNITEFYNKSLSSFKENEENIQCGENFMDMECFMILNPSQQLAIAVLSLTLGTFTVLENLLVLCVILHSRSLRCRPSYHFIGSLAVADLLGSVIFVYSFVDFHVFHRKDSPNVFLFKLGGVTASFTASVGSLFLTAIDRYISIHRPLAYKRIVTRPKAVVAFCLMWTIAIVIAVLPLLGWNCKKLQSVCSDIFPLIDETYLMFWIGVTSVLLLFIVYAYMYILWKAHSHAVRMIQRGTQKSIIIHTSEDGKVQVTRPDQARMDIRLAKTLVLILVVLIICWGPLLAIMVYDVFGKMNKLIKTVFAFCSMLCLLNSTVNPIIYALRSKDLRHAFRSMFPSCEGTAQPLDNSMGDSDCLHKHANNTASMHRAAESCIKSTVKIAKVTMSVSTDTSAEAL
Procedure: Frozen rat brains (CB1 source) are obtained from Pel-Freeze Biologicals (Rogers, AK) and stored at −80° C. until use. Membranes are prepared according to the method described by Dodd et al. and used in our laboratory as reported.
(§1) All the cannabinoids discussed in this invention are tested for their ability to bind to CB 1 and CB2 receptors using membranes from rat brain or HEK293 cells expressing either mCB2 or hCB2, respectively via competition-equilibrium binding using [^3H]CP-55,940. Results are analyzed using nonlinear regression to determine ligand IC50 (Prism by GraphPad Software, Inc.), and Ki values are calculated from the IC50. IC50 and Ki values are determined from at least three independent experiments.
(§2) Some disclosed compounds were tested for CB1 and CB2 receptor binding affinity, which can be represented by a Ki value. The Ki value is the affinity constant and describes the affinity of the compound for the receptor. […] A detailed description of the methods used to test binding affinity of compounds is given in US 2007/0135388 and in Papahatjis, et al., J. Med. Chem. (2007) 4048, the content of each of which is hereby incorporated by reference.

mCB2 = molecular target: T2, mCB2 (Mus musculus, UniProt P47936); assay: mCB2 competition-equilibrium binding with [3H]CP-55,940, HEK293 membranes
T2 construct: expressed in transfected cells; host or cells: HEK293
T2 sequence (P47936 whole entry): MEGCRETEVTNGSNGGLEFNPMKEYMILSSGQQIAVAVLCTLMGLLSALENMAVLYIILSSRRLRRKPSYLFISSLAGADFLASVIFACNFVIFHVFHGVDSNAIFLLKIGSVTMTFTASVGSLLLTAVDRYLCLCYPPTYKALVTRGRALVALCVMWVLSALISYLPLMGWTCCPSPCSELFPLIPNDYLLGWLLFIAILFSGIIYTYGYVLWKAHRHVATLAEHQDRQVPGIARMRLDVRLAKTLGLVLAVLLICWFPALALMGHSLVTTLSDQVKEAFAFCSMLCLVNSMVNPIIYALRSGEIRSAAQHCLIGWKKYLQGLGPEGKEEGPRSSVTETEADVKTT
Procedure: (§3) HEK293 cells expressing hCB1 or hCB2 or mCB2 receptor are used for membrane preparations according to Abadji et al. The resulting pellet is resuspended in 10 mM Tris-chloride, pH 7.4, with 5 mM MgCl2 and 2 mM EDTA (TME), rapidly frozen in liquid nitrogen and stored at −80° C. for no longer than two months. Protein content is assayed by using the Bio-Rad protein assay according to the manufacturer's protocol.
as §1, §2

hCB2 = molecular target: T3, hCB2 (Homo sapiens, UniProt P34972); assay: hCB2 competition-equilibrium binding with [3H]CP-55,940, HEK293 membranes
T3 construct: expressed in transfected cells; host or cells: HEK293
T3 sequence (P34972 whole entry): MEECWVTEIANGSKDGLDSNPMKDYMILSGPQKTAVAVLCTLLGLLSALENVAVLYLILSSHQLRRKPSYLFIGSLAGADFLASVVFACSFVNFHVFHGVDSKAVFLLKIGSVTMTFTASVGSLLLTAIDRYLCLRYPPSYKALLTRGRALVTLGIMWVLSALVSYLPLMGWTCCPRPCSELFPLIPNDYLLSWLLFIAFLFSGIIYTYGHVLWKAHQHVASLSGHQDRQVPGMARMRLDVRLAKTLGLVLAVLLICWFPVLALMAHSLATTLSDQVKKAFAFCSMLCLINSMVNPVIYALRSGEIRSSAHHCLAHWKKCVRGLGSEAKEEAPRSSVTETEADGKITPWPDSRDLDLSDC
Procedure: as §3, §1, §2

rCB1 [2] = molecular target: T1, rCB1; assay: cAMP assay, rCB1; format: cell-based; conditions: for Emax: cAMP assay
Procedure: Functional characterization of some of the disclosed compounds was performed by using the cyclic adenosine monophosphate (cAMP) assay. The functional potency of the compound in the cAMP assay is represented by the EC50 value. The lower the EC50 value, the higher the functional potency. A detailed description of the cyclic adenosine monophosphate (cAMP) assay is given in Nikas et al. J. Med. Chem. (2010) 6996, the content of which is incorporated herein by reference. Table 10 lists the EC50 values of certain compounds of Formula (Je) in the cAMP assay.

| SMILES | Ki (rCB1 [1]) [nM] | Ki (mCB2) [nM] | Ki (hCB2) [nM] | Ki (mCB2; HEK293 cells expressing mCB2, Tables 5-8, read-out: mCB2 Ki) [nM] | Ki (rCB1 [1]; rat brain membranes, Tables 5-8, read-out: rCB1 Ki) [nM] | EC50 (rCB1 [2]) [nM] | Emax (rCB1 [2]) [%] |
| --- | --- | --- | --- | --- | --- | --- | --- |
| CCCCOC(=O)C1(c2cc(O)c3c(c2)OC(C)(C)C2CCC(=O)CC32)CCCC1 (centres unmarked) [AM8137] | 0.4 ± 0.01 | – | – | – | – | – | – |
| CC1(C)Oc2cc(C3(C(=O)O)CCCC3)cc(O)c2C2CC(=O)CCC21 (centres unmarked) [AM8139] | > 1000 | > 1000 | > 1000 | – | – | – | – |
| CC1=CC[C@H]2[C@@H](C1)c1c(O)cc(C(C)(C)C(=O)OCCCCC#N)cc1OC2(C)C [Compound 1.3, 4-cyanobutyl-2-((6aS, 10aR)-6a, 7, 10, 10a-tetrahydro-1-hydroxy-6,6,9-trimethyl-6H-benzo[c]chromen-3-yl)-2-methylpropanoate] | – | – | – | 0.5 | – | – | – |
| CC1=CC[C@@H]2[C@@H](C1)c1c(O)cc(C(C)(C)C(=O)OCCCN3CCOCC3)cc1OC2(C)C [Compound 1.25, 3-morpholinopropyl 2-((6aR, 10aR)-1-hydroxy-6,6,9-trimethyl-6a,7, 10, 10a-tetrahydro-6H-benzo[c]chromen-3-yl)-2-methylpropanoate] | – | 104 | – | – | – | – | – |
| CC(C)(C(=O)OCCCC#N)c1cc(O)c2c(c1)OC(C)(C)[C@@H]1CC=C(CO)C[C@@H]21 [Compound 2.5] | 1 | 1 | 1 | – | – | – | – |
| CCCCOC(=O)C(C)(C)c1cc(O)c2c(c1)OC(C)(C)[C@@H]1CC[C@H](O)C[C@@H]21 [Compound 3.8, Butyl-2-((6aR,9S, 10aR)-6a,7,8,9, 10, 10a-hexahydro-1,9-dihydroxy-6,6-dimethyl-6H-benzo[c]chromen-3-yl)-2-methylpropanoate] | – | 0.6 | – | – | – | – | – |
| CCCCCCC(C)(C)c1cc(O)c2c(c1)OC(C)(C)[C@@H]1CCOC(=O)C[C@@H]21 [Compound 3.11, (5aR, 11bR)-11-hydroxy-6,6-dimethyl-9-(2-methyloctan-2-yl)-4,5,5a,6-tetrahydro-1H-oxepino[4,5-c]chromen-2(11bH)-one] | – | 8 | – | – | – | – | – |
| CCOC(=O)C(C)(C)c1cc(O)c(-c2cccc(C#N)c2)c(O)c1 [Compound 4.2, Ethyl 2-(3′-cyano-2,6-dihydroxybiphenyl-4-yl)-2-methylpropanoate] | – | – | – | – | 3.66 | – | – |
| CC(C)(C(=O)OCCCI)c1cc(O)c2c(c1)OC(C)(C)[C@@H]1CCC(=O)C[C@@H]21 [Compound 7, 3-Iodopropyl-2-((6aR,10aR)-1-hydroxy-6,6-dimethyl-9-oxo-6a,7,8,9,10,10a-hexahydro-6H-benzo[c]chromen-3-yl)-2-methylpropanoate] | 0.1 ± 0.04 | 1.2 ± 0.6 | 5.3 ± 0.9 | – | – | – | – |
| CC(C)(C(=O)OCCCN=C=S)c1cc(O)c2c(c1)OC(C)(C)[C@@H]1CCC(=O)C[C@@H]21 [Compound 10, 3-Isothiocyanatopropyl-2-((6aR,10aR)-1-hydroxy-6,6-dimethyl-9-oxo-6a,7,8,9,10,10a-hexahydro-6H-benzo[c]chromen-3-yl)-2-methylpropanoate] | 7.9 | 20 | 22 | – | – | 13.8 | 38 |
| CC(C)(CC(=O)O)c1cc(O)c2c(c1)OC(C)(C)[C@@H]1CCC(=O)C[C@@H]21 [Compound 19, 3-((6aR,10aR)-1-Hydroxy-6,6-dimethyl-9-oxo-6a,7,8,9,10,10a-hexahydro-6H-benzo[c]chromen-3-yl)-3-methylbutanoic acid] | > 1000 | > 1000 | > 1000 | – | – | – | – |
| COC(=O)CCC(C)(C)c1cc(O)c2c(c1)OC(C)(C)[C@@H]1CCC(=O)C[C@@H]21 [Compound 23, Methyl-4-((6aR,10aR)-1-hydroxy-6,6-dimethyl-9-oxo-6a,7,8,9,10,10a-hexahydro-6H-benzo[c]chromen-3-yl)-4-methylpentanoate] | 270 ± 34.6 | 540 ± 46.7 | 560 ± 64.3 | – | – | – | – |
| CC(C)(C(=O)O)c1cc(O)c2c(c1)OC(C)(C)[C@@H]1CCC(=O)C[C@@H]21 [Compound 32, 2-[(6aR,10aR)-6a,7,8,9,10,10a-Hexahydro-1-hydroxy-6,6-dimethyl-9-oxo-6H-benzo[c]chromen-3-yl]-2-methylpropanoic acid] | > 1000 | > 1000 | > 1000 | – | – | – | – |
| CCOC(=O)C(C)(C)c1cc(O)c2c(c1)OC(C)(C)[C@@H]1CCC(=O)C[C@@H]21 [Compound 34a, Ethyl 2-((6aR,10aR)-1-hydroxy-6,6-dimethyl-9-oxo-6a,7,8,9,10,10a-hexahydro-6H-benzo[c]chromen-3-yl)-2-methylpropanoate] | 36.7 ± 5.6 | 89.7 ± 18.1 | 67.5 ± 13.4 | – | – | – | – |
| CCCOC(=O)C(C)(C)c1cc(O)c2c(c1)OC(C)(C)[C@@H]1CCC(=O)C[C@@H]21 [Compound 34b, Propyl 2-((6aR,10aR)-1-hydroxy-6,6-dimethyl-9-oxo-6a,7,8,9,10,10a-hexahydro-6H-benzo[c]chromen-3-yl)-2-methylpropanoate] | 4.8 ± 0.8 | 32 ± 5.2 | 8.3 ± 3.1 | – | – | – | – |
| CCCCCCOC(=O)C(C)(C)c1cc(O)c2c(c1)OC(C)(C)[C@@H]1CCC(=O)C[C@@H]21 [Compound 34d, Hexyl 2-((6aR,10aR)-1-hydroxy-6,6-dimethyl-9-oxo-6a,7,8,9,10,10a-hexahydro-6H-benzo[c]chromen-3-yl)-2-methylpropanoate] | 5.9 ± 1.2 | 30 ± 7.3 | 15.1 ± 2.2 | – | – | – | – |
| CCC[C@H](C)OC(=O)C(C)(C)c1cc(O)c2c(c1)OC(C)(C)[C@@H]1CCC(=O)C[C@@H]21 [Compound 34e, (S)-pentan-2-yl 2-((6aR,10aR)-1-hydroxy-6,6-dimethyl-9-oxo-6a,7,8,9,10,10a-hexahydro-6H-benzo[c]chromen-3-yl)-2-methylpropanoate] | 3 ± 0.5 | 54 ± 10.6 | 12.4 ± 2.5 | – | – | 2.9 | 58 |
| CCC[C@@H](C)OC(=O)C(C)(C)c1cc(O)c2c(c1)OC(C)(C)[C@@H]1CCC(=O)C[C@@H]21 [Compound 34f, (R)-Pentan-2-yl 2-((6aR,10aR)-1-hydroxy-6,6-dimethyl-9-oxo-6a,7,8,9,10,10a-hexahydro-6H-benzo[c]chromen-3-yl)-2-methylpropanoate] | 4 ± 0.7 | 36.4 ± 12.4 | 7 ± 2.1 | – | – | 94.5 | 71 |
| CCCCNC(=O)C(C)(C)c1cc(O)c2c(c1)OC(C)(C)[C@@H]1CCC(=O)C[C@@H]21 [Compound 34i, N-Butyl-2-((6aR,10aR)-1-hydroxy-6,6-dimethyl-9-oxo-6a,7,8,9,10,10a-hexahydro-6H-benzo[c]chromen-3-yl)-2-methylpropanamide] | 115 ± 21.6 | > 1000 | > 1000 | – | – | – | – |
| CC(C)(C(=O)OCCCCBr)c1cc(O)c2c(c1)OC(C)(C)[C@@H]1CCC(=O)C[C@@H]21 [Compound 36, 4-Bromobutyl 2-((6aR,10aR)-1-hydroxy-6,6-dimethyl-9-oxo-6a,7,8,9,10,10a-hexahydro-6H-benzo[c]chromen-3-yl)-2-methylpropanoate] | 0.002 | 1.8 | – | – | – | – | – |
| CC(C)(C(=O)OCCCCN=[N+]=[N-])c1cc(O)c2c(c1)OC(C)(C)[C@@H]1CCC(=O)C[C@@H]21 [Compound 37, 4-Azidobutyl 2-((6aR,10aR)-1-hydroxy-6,6-dimethyl-9-oxo-6a,7,8,9,10,10a-hexahydro-6H-benzo[c]chromen-3-yl)-2-methylpropanoate] | 1.7 | 4.5 | 1.7 | – | – | – | – |
| CC(C)(C(=O)OCCCCN=C=S)c1cc(O)c2c(c1)OC(C)(C)[C@@H]1CCC(=O)C[C@@H]21 [Compound 38, 4-Isothiocyanatobutyl 2-((6aR,10aR)-1-hydroxy-6,6-dimethyl-9-oxo-6a,7,8,9,10,10a-hexahydro-6H-benzo[c]chromen-3-yl)-2-methylpropanoate] | 4.9 | 21.4 | 5.2 | – | – | – | – |
| CC(C)(C(=O)OCCCCO[N+](=O)[O-])c1cc(O)c2c(c1)OC(C)(C)[C@@H]1CCC(=O)C[C@@H]21 [Compound 39, 4-(Nitrooxy)butyl 2-((6aR,10aR)-1-hydroxy-6,6-dimethyl-9-oxo-6a,7,8,9,10,10a-hexahydro-6H-benzo[c]chromen-3-yl)-2-methylpropanoate] | 0.2 | 2.2 | 2.6 | – | – | – | – |
